From patent US10280156B2, “Heteroaromatic chalcone derivatives and their medical use” (Medizinische Universität Wien, priority 2014, dated 2019)
Values joined by “and” are separate entries in the source; they are usually repeats but may differ in a detail not shown here. Equal entries are not always repeated.

Assays:
OCI-Ly7 = assay: Viability test on OCI-Ly7 cells, 48 h; format: cell-based, human; conditions: 48 h incubation; nd = no significant cytotoxic activity up to 100 μM
Description: (§1) JURKAT and CCRF-CEM (T-cell acute lymphoblastic leukemia), HL60 and K562 representing acute and chronic myeloid leukemia, respectively, the chronic lymphocytic leukemia cell line MEC-1, and the diffuse large B-cell lymphoma cell line U-2940 were cultured in Gibco RPMI 1640+GlutaMAX (Life Technologies, Carlsbad, Calif., USA) supplemented with 10% fetal bovine serum gold (FBS gold; PAA Laboratories, Pasching, Austria) and 1% PenStrep (100 U/ml penicillin and 100 μg/ml streptomycin; PAA Laboratories), and maintained at 37° C. in humidified atmosphere with 5% CO2. The diffuse large B-cell lymphoma cell line OCI-LY7 was cultured in Gibco IMDM+GlutaMAX and 25 mM HEPES (Life Technologies) containing 20% FBS gold and 1% PenStrep.
(§2) All experiments with hematological cell lines were done using phenol red-free RPMI 1640+L-glutamine (PAA Laboratories) supplemented with 1% PenStrep and 10% FBS gold, except experiments with OCI-Ly7 which were carried out in Gibco IMEM+GlutaMAX and 25 mM HEPES containing 20% FBS gold and 1% PenStrep. Cells were incubated in triplicates with increasing concentrations of the compounds for 48 h, changes in viability were determined using the cell proliferation and cytotoxicity assays EZ4U (Biomedica Group, Austria) and CellTiter-Blue Cell Viability Assay (Promega, Madison, Wis., USA) following instructions of the manufacturers. IC50 values were calculated from two independent experiments using GraphPad Prism 5 software.
(§3) Initially, compounds were biologically tested in six concentration steps (0.1 μM; 1 μM; 5 μM; 10 μM; 50 μM; and 100 μM) using the CellTiter-Blue Cell Viability Assay (Promega, Madison, Wis., USA) and an incubation time of 48 hours. […] IC50 values were calculated from at least two independent experiments with 3 replicates each. In order to evaluate the biologic activity of the new compounds, cytotoxicity was compared to that of fludarabine, an already approved drug for the treatment of various B-cell malignancies. […] Differences in IC50 values for the different cell types can be explained by the biological and genetic particularities of each subtype of B-cell Non-Hodgkin lymphoma (Stacchini A et al. Leukemia Res 1999, 23, 127-136; Sambade C et al. Int J Cancer 2006, 118, 555-563; Chang H et al. Leukemia lymphoma 1995, 19, 165-171; Tweeddale M E et al. Blood 1987, 69, 1307-1314; Tweeddale M et al. Blood 1989, 74, 572-578).

[1] = system: PBMC of CLL patients cultured over a layer of mouse fibroblast cells (M2-10B4); assay: Viability of CLL cells in co-culture with M2-10B4 fibroblast cells; format: cell-based; conditions: Homo sapiens, M210B4, 48 h
Description: Primary cells were incubated at a density of 300,000 cells per well in 96-well plates in a total volume of 100 μl of Gibco RPMI 1640+L-glutamine (PAA Laboratories) supplemented with 20% FBS gold with increasing concentrations of compounds for 48 h. For co-culture experiments, 150,000 M2-10B4 mouse fibroblast cells were seeded into 12-well plates and allowed to form a confluent layer over night. Supernatant was replaced by 3 million primary cells in a total volume of 1 ml medium and incubated with increasing concentrations of compounds for 48 h. Viability was measured using CellTiter-Blue Cell Viability Assay (Promega, Madison, Wis., USA) following the instructions of the manufacturers. Experiments with primary cells were done in triplicates, IC50 values were calculated from the mean values of all samples used in the various experiments using GraphPad Prism 5 software.
As a last step, it has been sought to evaluate the cytotoxicity of compound 15 in primary cells and compare its activity to the impact of fludarabine. To this end, peripheral blood mononuclear cells (PBMC) of chronic lymphocytic leukemia (CLL) patients were used in two experimental settings. They were cultured in conventional suspension culture being exposed to increasing concentrations of drug. […]

SU-DHL9 = assay: Viability test on SU-DHL9 cells; format: cell-based, human
Description: as §2
Hematologic malignancies are highly heterogeneous in their biology and behavior. This and the fact that some patient groups are resistant to therapy underlines the urgent need for new therapeutic drugs. Compound 15 has therefore been tested on other cell lines representing a variety of hematologic neoplasms: two T-cell acute leukemia cell lines (CCRF, Jurkat), two myeloid leukemia cell lines (HL60, K562), and two additional B-cell lines (SU-DHL6, SU-DHL9). Viability was assessed as described in the methods section above. […] An exception was the chronic myeloid leukemia line K562. […]

MEC1 = assay: Viability test (CellTiter-Blue/EZ4U) on MEC1 cells, 48 h; format: cell-based, human; conditions: Homo sapiens, MEC1, 48 h, 48 h incubation; nd = no significant cytotoxic activity up to 100 μM
Description: as §1, §2, §3

K562 = assay: Viability test on K562 cells; format: cell-based, human; conditions: already at low concentrations, no further increase of toxicity at increasing concentrations
Description: as §1, with “The diffuse large B-cell lymphoma cell line OCI-LY7 was cultured in Gibco IMDM+GlutaMAX and 25 mM HEPES (Life Technologies) containing 20% FBS gold and 1% PenStrep.” left out
as §2, with “software. […]” for “software.”

Jurkat = assay: Viability test on Jurkat cells; format: cell-based, human
Description: as §1, with “The diffuse large B-cell lymphoma cell line OCI-LY7 was cultured in Gibco IMDM+GlutaMAX and 25 mM HEPES (Life Technologies) containing 20% FBS gold and 1% PenStrep.” left out
as §2, with “software. […]” for “software.”

[2] = system: primary cells from CLL patients; assay: Combination treatment of CLL primary cells with compound 15 and a further anticancer agent; format: cell-based, human
Description: Peripheral blood mononuclear cells (PBMCs) of CLL patients were incubated in increasing concentrations of one of the above-mentioned anticancer agents alone or increasing anticancer agent concentrations plus compound 15 in two different concentrations under standard conditions for 48 h before viability was determined (CellTiterBlue, Promega). Primary cells from 5 (ABT199) or 6 patients (CAL101, PCI32765) were included.

U-2940 = assay: Viability test on U-2940 cells, 48 h; format: cell-based, human; conditions: 48 h incubation; nd = no significant cytotoxic activity up to 100 μM
Description: as §1, §2, §3

Compound: CCOc1ccccc1C(=O)/C=C/c1cc2ccccc2[nH]1 [Compound 15, 1-(2-Ethoxyphenyl)-3-(1H-indole-2-yl)-2-propen-1-one]
- IC50 (OCI-Ly7): 2900 nM
- IC50 [1]: 680 nM
- melting point: 124 to 126 °C
- IC50 (SU-DHL9; Homo sapiens, B-cell lymphoma, nd = no significant cytotoxic activity up to 100 μM): 30 nM
- viability, % of control (SU-DHL9; SU-DHL9, at concentrations <1 μM): less than 30 % of control
- IC50 (MEC1): 22 nM
- viability reduced down to (K562): 60%
- IC50 (Jurkat; Homo sapiens, T-cell acute leukemia, nd = no significant cytotoxic activity up to 100 μM): 40 nM
- viability, % of control (Jurkat; at concentrations <1 μM): less than 30 % of control
- effect of adding compound 15 to ABT199 on cytotoxicity ([2]; combination with ABT199, N=5, 48 h): synergistic effect
- effect of adding compound 15 to CAL101 on cytotoxicity ([2]; combination with CAL101 (idelalisib), N=6, 48 h): synergistic effect
- effect of adding compound 15 to PCI32765 on cytotoxicity ([2]; combination with PCI32765 (ibrutinib), N=6, 48 h): synergistic effect
- IC50 (U-2940): 50 nM and 52 nM
